Reference: ChEMBL document CHEMBL1152581, “Delta-di-carboxybutyl phosphoramidate of 2'-deoxycytidine-5'-monophosphate as substrate for DNA polymerization by HIV-1 reverse transcriptase” (Bioorg Med Chem, 2009)
The source made the active and inactive calls. No cut-off for these calls is given here.

Legend:
[1] = biological target: Human immunodeficiency virus type 1 reverse transcriptase (Human immunodeficiency virus 1) (UniProt Q72547); assay: Activity at HIV1 reverse transcriptase assessed as elongation of DNA primer after 60 mins by single nucleotide incorporation assay
[2] = biological target: Human immunodeficiency virus type 1 reverse transcriptase (Human immunodeficiency virus 1) (UniProt Q72547); assay: Activity at HIV1 reverse transcriptase assessed as elongation of DNA primer after 60 mins at 500 uM by single nucleotide incorporation assay
[3] = biological target: Human immunodeficiency virus type 1 reverse transcriptase (Human immunodeficiency virus 1) (UniProt Q72547); assay: Activity at HIV1 reverse transcriptase assessed as elongation of DNA primer up to 120 mins at 500 uM by single nucleotide incorporation assay
[4] = biological target: Human immunodeficiency virus type 1 reverse transcriptase (Human immunodeficiency virus 1) (UniProt Q72547); assay: Activity at HIV1 reverse transcriptase assessed as elongation of DNA primer up to 120 mins at 1 mM by single nucleotide incorporation assay

| Activity [1] | Activity [2] [%] | Activity [3] [%] | Activity [4] [%] | SMILES |
| --- | --- | --- | --- | --- |
| inactive | – | – | – | Nc1ccn([C@@H]2O[C@H](COP(=O)(O)NCCCC(C(=O)O)C(=O)O)C[C@H]2O)c(=O)n1 |
| – | 82 | – | – | Nc1ncnc2c1ncn2[C@H]1C[C@H](O)[C@@H](COP(=O)(O)N[C@@H](CC(=O)O)C(=O)O)O1 |
| – | 54 | 60 | 60 | Nc1ccn([C@H]2C[C@H](O)[C@@H](COP(=O)(O)NCCCC(C(=O)O)C(=O)O)O2)c(=O)n1 |
